According to ChEMBL document CHEMBL1649565, “Besifloxacin, a novel fluoroquinolone, has broad-spectrum in vitro activity against aerobic and anaerobic bacteria” (Antimicrob Agents Chemother, 2009):
≈ marks a conversion by molar mass, not a printed value. Calls of active or inactive are those of the source. No cut-off for these calls is given here.

Legend:
Enterococcus faecalis = assay: Antibacterial activity against vancomycin- resistant Enterococcus faecalis by CLSI M100-S18 method; format: functional
Enterococcus faecium = assay: Antibacterial activity against vancomycin- resistant Enterococcus faecium by CLSI M100-S18 method; format: functional
Listeria monocytogenes = assay: Antibacterial activity against Listeria monocytogenes by CLSI M100-S18 method; format: functional
Staphylococcus aureus [1] = assay: Antibacterial activity against ciprofloxacin-susceptible and methicillin-resistant Staphylococcus aureus by CLSI M100-S18 method; format: functional
Staphylococcus aureus [2] = assay: Antibacterial activity against non-ciprofloxacin-susceptible and methicillin-susceptible Staphylococcus aureus by CLSI M100-S18 method; format: functional
[3] = test system: Staphylococcus epidermidis; assay: Antibacterial activity against ciprofloxacin-susceptible and methicillin-resistant Staphylococcus epidermidis by CLSI M100-S18 method; format: functional
[4] = test system: Staphylococcus epidermidis; assay: Antibacterial activity against non-ciprofloxacin-susceptible and methicillin-susceptible Staphylococcus epidermidis by CLSI M100-S18 method; format: functional
[5] = test system: Staphylococcus haemolyticus; assay: Antibacterial activity against Staphylococcus haemolyticus by CLSI M100-S18 method; format: functional
Staphylococcus hominis [6] = assay: Antibacterial activity against Staphylococcus hominis by CLSI M100-S18 method; format: functional
[7] = test system: Staphylococcus lugdunensis; assay: Antibacterial activity against Staphylococcus lugdunensis by CLSI M100-S18 method; format: functional
[8] = test system: Staphylococcus saprophyticus; assay: Antibacterial activity against Staphylococcus saprophyticus by CLSI M100-S18 method; format: functional
Staphylococcus warneri [9] = assay: Antibacterial activity against Staphylococcus warneri by CLSI M100-S18 method; format: functional
Streptococcus agalactiae = assay: Antibacterial activity against Streptococcus agalactiae by CLSI M100-S18 method; format: functional
[10] = Antibacterial activity against Lancefield Streptococcus sp. 'group C' by CLSI M100-S18 method; format: functional
Streptococcus sp. = assay: Antibacterial activity against Lancefield Streptococcus sp. group F by CLSI M100-S18 method; format: functional
[11] = Antibacterial activity against Lancefield Streptococcus sp. 'group G' by CLSI M100-S18 method; format: functional
Streptococcus pneumoniae [12] = assay: Antibacterial activity against levofloxacin-susceptible Streptococcus pneumoniae by CLSI M100-S18 method; format: functional
Streptococcus pneumoniae [13] = assay: Antibacterial activity against non-levofloxacin susceptible Streptococcus pneumoniae by CLSI M100-S18 method; format: functional
Streptococcus pyogenes = assay: Antibacterial activity against Streptococcus pyogenes by CLSI M100-S18 method; format: functional
Streptococcus anginosus = assay: Antibacterial activity against Streptococcus anginosus by CLSI M100-S18 method; format: functional
Streptococcus equinus = assay: Antibacterial activity against Streptococcus bovis by CLSI M100-S18 method; format: functional
[14] = test system: Streptococcus constellatus; assay: Antibacterial activity against Streptococcus constellatus by CLSI M100-S18 method; format: functional
[15] = test system: Streptococcus intermedius; assay: Antibacterial activity against Streptococcus intermedius by CLSI M100-S18 method; format: functional
Streptococcus mitis = assay: Antibacterial activity against Streptococcus mitis by CLSI M100-S18 method; format: functional
Streptococcus oralis = assay: Antibacterial activity against Streptococcus oralis by CLSI M100-S18 method; format: functional
Streptococcus salivarius = assay: Antibacterial activity against Streptococcus salivarius by CLSI M100-S18 method; format: functional
Streptococcus sanguinis = assay: Antibacterial activity against Streptococcus sanguinis by CLSI M100-S18 method; format: functional
Citrobacter koseri [16] = assay: Antibacterial activity against Citrobacter koseri by CLSI M7-A7 method; format: functional
Haemophilus influenzae [17] = assay: Antibacterial activity against ciprofloxacin-susceptible Haemophilus influenzae by CLSI M7-A7 method; format: functional
Haemophilus influenzae [18] = assay: Antibacterial activity against non-ciprofloxacin-susceptible Haemophilus influenzae by CLSI M7-A7 method; format: functional
Klebsiella oxytoca [19] = assay: Antibacterial activity against Klebsiella oxytoca by CLSI M7-A7 method; format: functional
Legionella pneumophila = assay: Antibacterial activity against Legionella pneumophila by CLSI M7-A7 method; format: functional
Moraxella catarrhalis [20] = assay: Antibacterial activity against Moraxella catarrhalis by CLSI M7-A7 method; format: functional
Morganella morganii [21] = assay: Antibacterial activity against Morganella morganii by CLSI M7-A7 method; format: functional
Neisseria meningitidis [22] = assay: Antibacterial activity against Neisseria meningitidis by CLSI M7-A7 method; format: functional
Staphylococcus aureus [23] = assay: Antibacterial activity against ciprofloxacin-susceptible and methicillin-resistant Staphylococcus aureus assessed as percent susceptible isolates by CLSI M100-S18 method; format: functional
Staphylococcus aureus [24] = assay: Antibacterial activity against non-ciprofloxacin-susceptible and methicillin-susceptible Staphylococcus aureus assessed as percent susceptible isolates by CLSI M100-S18 method; format: functional
[25] = test system: Staphylococcus epidermidis; assay: Antibacterial activity against ciprofloxacin-susceptible and methicillin-resistant Staphylococcus epidermidis assessed as percent susceptible isolates by CLSI M100-S18 method; format: functional
[26] = test system: Staphylococcus epidermidis; assay: Antibacterial activity against non-ciprofloxacin-susceptible and methicillin-susceptible Staphylococcus epidermidis assessed as percent susceptible isolates by CLSI M100-S18 method; format: functional
[27] = test system: Staphylococcus haemolyticus; assay: Antibacterial activity against Staphylococcus haemolyticus assessed as percent susceptible isolates by CLSI M100-S18 method; format: functional
Staphylococcus hominis [28] = assay: Antibacterial activity against Staphylococcus hominis assessed as percent susceptible isolates by CLSI M100-S18 method; format: functional
[29] = test system: Staphylococcus lugdunensis; assay: Antibacterial activity against Staphylococcus lugdunensis assessed as percent susceptible isolates by CLSI M100-S18 method; format: functional
[30] = test system: Staphylococcus saprophyticus; assay: Antibacterial activity against Staphylococcus saprophyticus assessed as percent susceptible isolates by CLSI M100-S18 method; format: functional
Staphylococcus warneri [31] = assay: Antibacterial activity against Staphylococcus warneri assessed as percent susceptible isolates by CLSI M100-S18 method; format: functional
Streptococcus pneumoniae [32] = assay: Antibacterial activity against levofloxacin susceptible Streptococcus pneumoniae assessed as percent susceptible isolates by CLSI M100-S18 method; format: functional
Streptococcus pneumoniae [33] = assay: Antibacterial activity against non-levofloxacin susceptible Streptococcus pneumoniae assessed as percent susceptible isolates by CLSI M100-S18 method; format: functional
Citrobacter koseri [34] = assay: Antibacterial activity against Citrobacter koseri assessed as percent susceptible isolates by CLSI M7-A7 method; format: functional
Haemophilus influenzae [35] = assay: Antibacterial activity against ciprofloxacin-susceptible Haemophilus influenzae assessed as percent susceptible isolates by CLSI M7-A7 method; format: functional
Haemophilus influenzae [36] = assay: Antibacterial activity against non-ciprofloxacin-susceptible Haemophilus influenzae assessed as percent susceptible isolates by CLSI M7-A7 method; format: functional
Klebsiella oxytoca [37] = assay: Antibacterial activity against Klebsiella oxytoca assessed as percent susceptible isolates by CLSI M7-A7 method; format: functional
Moraxella catarrhalis [38] = assay: Antibacterial activity against Moraxella catarrhalis assessed as percent susceptible isolates by CLSI M7-A7 method; format: functional
Morganella morganii [39] = assay: Antibacterial activity against Morganella morganii assessed as percent susceptible isolates by CLSI M7-A7 method; format: functional
Neisseria meningitidis [40] = assay: Antibacterial activity against Neisseria meningitidis assessed as percent susceptible isolates by CLSI M7-A7 method; format: functional
[41] = test system: Staphylococcus epidermidis
[42] = test system: Staphylococcus epidermidis; remark: listed apart in the source

CC[C@H]1OC(=O)[C@H](C)[C@@H](O[C@H]2C[C@@](C)(OC)[C@@H](O)[C@H](C)O2)[C@H](C)[C@@H](O[C@@H]2O[C@H](C)C[C@H](N(C)C)[C@H]2O)[C@](C)(O)C[C@@H](C)CN(C)[C@H](C)[C@@H](O)[C@]1(C)O [AZITHROMYCIN]
MIC50 (Enterococcus faecalis): > 128 mg/L | MIC90 (Enterococcus faecalis): > 128 mg/L | MIC50 (Enterococcus faecium): > 128 mg/L | MIC90 (Enterococcus faecium): > 128 mg/L | MIC50 (Listeria monocytogenes): 0.5 mg/L (≈ 0.668 µM) | MIC90 (Listeria monocytogenes): 1 mg/L (≈ 1.34 µM) | MIC50 (Staphylococcus aureus [1]): 1 mg/L (≈ 1.34 µM) | MIC50 (Staphylococcus aureus [2]): > 8 mg/L | MIC90 (Staphylococcus aureus [2]): > 8 mg/L | MIC [3]: 0.25 mg/L (≈ 0.334 µM) | MIC50 [4]: > 8 mg/L | MIC50 [5]: > 8 mg/L | MIC90 [5]: > 8 mg/L | MIC50 (Staphylococcus hominis [6]): > 8 mg/L | MIC90 (Staphylococcus hominis [6]): > 8 mg/L | MIC50 [7]: > 8 mg/L | MIC90 [7]: > 8 mg/L | MIC50 [8]: 1 mg/L (≈ 1.34 µM) | MIC90 [8]: > 8 mg/L | MIC50 (Staphylococcus warneri [9]): > 8 mg/L | MIC90 (Staphylococcus warneri [9]): > 8 mg/L | MIC50 (Streptococcus agalactiae): 0.5 mg/L (≈ 0.668 µM) | MIC90 (Streptococcus agalactiae): 0.5 mg/L (≈ 0.668 µM) | MIC50 [10]: 0.5 mg/L (≈ 0.668 µM) | MIC90 [10]: 0.5 mg/L (≈ 0.668 µM) | MIC50 (Streptococcus sp.): 0.5 mg/L (≈ 0.668 µM) | MIC90 (Streptococcus sp.): 0.5 mg/L (≈ 0.668 µM) | MIC50 [11]: 0.5 mg/L (≈ 0.668 µM) | MIC90 [11]: 0.5 mg/L (≈ 0.668 µM) | MIC50 (Streptococcus pneumoniae [12]): 0.06 mg/L (≈ 0.0801 µM) | MIC90 (Streptococcus pneumoniae [12]): > 64 mg/L | MIC50 (Streptococcus pneumoniae [13]): 4 mg/L (≈ 5.34 µM) | MIC90 (Streptococcus pneumoniae [13]): > 64 mg/L | MIC50 (Streptococcus pyogenes): 0.06 mg/L (≈ 0.0801 µM) | MIC90 (Streptococcus pyogenes): 8 mg/L (≈ 10.7 µM) | MIC50 (Streptococcus anginosus): 0.06 mg/L (≈ 0.0801 µM) | MIC90 (Streptococcus anginosus): > 8 mg/L | MIC50 (Streptococcus equinus): 1 mg/L (≈ 1.34 µM) | MIC90 (Streptococcus equinus): 1 mg/L (≈ 1.34 µM) | MIC50 [14]: 1 mg/L (≈ 1.34 µM) | MIC90 [14]: 1 mg/L (≈ 1.34 µM) | MIC50 [15]: 1 mg/L (≈ 1.34 µM) | MIC90 [15]: 1 mg/L (≈ 1.34 µM) | MIC50 (Streptococcus mitis): 1 mg/L (≈ 1.34 µM) | MIC90 (Streptococcus mitis): 1 mg/L (≈ 1.34 µM) | MIC50 (Streptococcus oralis): 1 mg/L (≈ 1.34 µM) | MIC90 (Streptococcus oralis): 1 mg/L (≈ 1.34 µM) | MIC50 (Streptococcus salivarius): 1 mg/L (≈ 1.34 µM) | MIC90 (Streptococcus salivarius): 1 mg/L (≈ 1.34 µM) | MIC50 (Streptococcus sanguinis): 1 mg/L (≈ 1.34 µM) | MIC90 (Streptococcus sanguinis): 1 mg/L (≈ 1.34 µM) | MIC50 (Citrobacter koseri [16]): 8 mg/L (≈ 10.7 µM) | MIC90 (Citrobacter koseri [16]): > 8 mg/L | MIC50 (Haemophilus influenzae [17]): 2 mg/L (≈ 2.67 µM) | MIC90 (Haemophilus influenzae [17]): 2 mg/L (≈ 2.67 µM) | MIC50 (Haemophilus influenzae [18]): 1 mg/L (≈ 1.34 µM) | MIC90 (Haemophilus influenzae [18]): 8 mg/L (≈ 10.7 µM) | MIC50 (Klebsiella oxytoca [19]): > 8 mg/L | MIC90 (Klebsiella oxytoca [19]): > 8 mg/L | MIC50 (Legionella pneumophila): 0.03 mg/L (≈ 0.0401 µM) | MIC90 (Legionella pneumophila): 0.03 mg/L (≈ 0.0401 µM) | MIC (Moraxella catarrhalis [20]): 0.015 mg/L (≈ 0.02 µM) | MIC50 (Moraxella catarrhalis [20]): 0.015 mg/L (≈ 0.02 µM) | MIC90 (Moraxella catarrhalis [20]): 0.03 mg/L (≈ 0.0401 µM) | MIC50 (Morganella morganii [21]): > 8 mg/L | MIC90 (Morganella morganii [21]): > 8 mg/L | MIC50 (Neisseria meningitidis [22]): 0.06 mg/L (≈ 0.0801 µM) | MIC90 (Neisseria meningitidis [22]): 0.06 mg/L (≈ 0.0801 µM) | Activity (Staphylococcus aureus [23]): 94.7% | Activity (Staphylococcus aureus [24]): 18.2% | Activity [25]: 100% | Activity [26]: 0% | Activity [27]: 39.6% | Activity (Staphylococcus hominis [28]): 30% | Activity [29]: 66.7% | Activity [30]: 100% | Activity (Staphylococcus warneri [31]): 76% | Activity (Streptococcus pneumoniae [32]): 62.5% | Activity (Streptococcus pneumoniae [33]): 36.5% | Activity (Citrobacter koseri [34]): 99% | Activity (Haemophilus influenzae [35]): 100% | Activity (Haemophilus influenzae [36]): 81.8% | Activity (Klebsiella oxytoca [37]): 90% | Activity (Moraxella catarrhalis [38]): 100% | Activity (Morganella morganii [39]): 76.5% | Activity (Neisseria meningitidis [40]): 100% | MIC90 [41]: inactive | MIC90 [42]: inactive
